In patent US12441725B2, “ISO-citrate dehydrogenase (IDH) inhibitor” (ZHEJIANG METON PHARMACEUTICAL CO., LTD, priority 2019, dated 2025) one finds IC50 data, which are given here for 18 compounds.

One assay has as its target T1, IDH1 R132H (Homo sapiens, UniProt O75874, R132H).
T1 construct: 6xHis
Nature of the assay: Biochemical assay for IDH inhibition (NADPH fluorescence), mutant IDH1 R132H. The following applies: 50 nM IDH1-R132H, 1 hour pre-incubation, in triplet. Summed up:
(§1)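 The read-out was the linear-phase loss of NADPH fluorescence (340/460 nm) over 15 min, background-subtracted and normalized to DMSO wells, giving triplicate IC50 values. Beforehand, R132H (50 nM) or R132C (25 nM) was exposed to compound for 1 h at room temperature with 1.33 mM α-KG at pH 7.5, and the reaction was triggered by adding an 80 μM NADPH solution.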

Another assay deals with T2, IDH1 R132C (Homo sapiens, UniProt O75874, R132C).
T2 construct: 6xHis
Description: Biochemical assay for IDH inhibition (NADPH fluorescence), mutant IDH1 R132C. The note with it: 25 nM IDH1-R132C, 1 hour pre-incubation, in triplet. In short, it runs like this: as §1

For assay [1], the target named is T3, IDH (endogenous IDH1 R132C) in HT1080 cell (Homo sapiens, UniProt O75874, R132C).
T3 construct: which harbor endogenous heterozygous IDH1 R132C and R132H mutation respectively and accumulate D-2-HG
Description: Cell-based assay for IDH inhibition (decrease of D-2-HG) in HT1080 cells. The following applies: human fibrosarcoma cell line HT1080, 16 hours treatment, D-2-HG by LC-MS, in triplet. Summed up: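 LC-MS/MS quantification of D-2-HG, normalized to glutamate, follows a 16 h compound exposure of IDH1 R132C HT1080 cells in DMEM with 10% FBS. Extraction uses pre-chilled 40% methanol/40% acetonitrile in water. Triplicate determinations; IC50 from D-2-HG levels relative to DMSO-treated cells.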

For orientation: IC50 means the point on the concentration scale where inhibition reaches its midpoint.

T2 sequence (O75874 whole entry R132C): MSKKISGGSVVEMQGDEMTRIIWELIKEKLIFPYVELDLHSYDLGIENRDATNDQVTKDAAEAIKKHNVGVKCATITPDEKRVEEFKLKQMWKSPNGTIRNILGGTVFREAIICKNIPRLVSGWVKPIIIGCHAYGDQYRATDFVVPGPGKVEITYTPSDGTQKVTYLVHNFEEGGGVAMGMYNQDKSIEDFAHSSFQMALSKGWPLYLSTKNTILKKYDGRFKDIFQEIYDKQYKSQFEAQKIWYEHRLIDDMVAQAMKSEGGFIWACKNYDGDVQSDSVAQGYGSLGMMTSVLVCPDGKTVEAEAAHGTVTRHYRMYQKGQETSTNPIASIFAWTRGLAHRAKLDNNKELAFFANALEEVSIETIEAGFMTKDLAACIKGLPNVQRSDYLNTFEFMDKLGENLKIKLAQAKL
T1 sequence (O75874 whole entry R132H): as the sequence (O75874 whole entry R132C) above, with C132H counted along it
T3 sequence (O75874 2-414 R132C): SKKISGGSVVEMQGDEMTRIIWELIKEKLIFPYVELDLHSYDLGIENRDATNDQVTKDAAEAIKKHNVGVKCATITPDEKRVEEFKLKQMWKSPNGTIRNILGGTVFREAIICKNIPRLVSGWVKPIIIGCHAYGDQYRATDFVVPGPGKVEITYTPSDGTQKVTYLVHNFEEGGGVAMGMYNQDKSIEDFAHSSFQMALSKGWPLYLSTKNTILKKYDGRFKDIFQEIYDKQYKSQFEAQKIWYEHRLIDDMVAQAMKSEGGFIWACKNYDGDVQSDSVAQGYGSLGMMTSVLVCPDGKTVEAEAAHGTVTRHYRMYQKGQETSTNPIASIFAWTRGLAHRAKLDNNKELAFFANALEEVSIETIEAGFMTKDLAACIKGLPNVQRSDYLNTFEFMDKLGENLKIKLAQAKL

`CCN1Cc2c(ccnc2N[C@@H](C)c2ccc(C3CCN(C(C)(C)C)CC3)c(F)c2)C1=O` [Compound 36, (S)-4-((1-(4-(1-(tert-butyl)piperidin-4-yl)-3-fluorophenyl)ethyl)amino)-2-ethyl-2,3-dihydro-1H-pyrrolo[3,4-c]pyridin-1-one]: the IC50 (at IDH1 R132H; at IDH1 R132C; in assay [1]) was more than 1000 nM each time.
Regarding `C[C@H](Nc1nccc2c1CN(CC(F)F)C2=O)c1ccc(-c2ccnc(C(C)(C)C)c2)c(F)c1` [Compound 37, (S)-4-((1-(4-(2-(tert-butyl)pyridin-4-yl)-3-fluorophenyl)ethyl)amino)-2-(2,2-difluoroethyl)-2,3-dihydro-1H-pyrrolo[3,4-c]pyridin-1-one], the IC50 was 100 to 500 nM at IDH1 R132H, 100 to 500 nM on IDH1 R132C and 500 to 1000 nM in assay [1].
`C[C@H](Nc1nccc2c1CN(C(CF)CF)C2=O)c1ccc(-c2ccnc(C(C)(C)C)c2)c(F)c1` [Compound 38, (S)-4-((1-(4-(2-(tert-butyl)pyridin-4-yl)-3-fluorophenyl)ethyl)amino)-2-(1,3-difluoropropan-2-yl)-2,3-dihydro-1H-pyrrolo[3,4-c]pyridin-1-one]: the IC50 on IDH1 R132H was less than 100 nM; at IDH1 R132C, 100 to 500 nM; in assay [1] it was 500 to 1000 nM.
On to `C[C@H](Nc1nccc2c1CN(CC(F)CF)C2=O)c1ccc(-c2ccnc(C(C)(C)C)c2)c(F)c1` (stereo partly drawn) [Compound 39, 4-(((S)-1-(4-(2-(tert-butyl)pyridin-4-yl)-3-fluorophenyl)ethyl)amino)-2-(2,3-difluoropropyl)-2,3-dihydro-1H-pyrrolo[3,4-c]pyridin-1-one], for which the values for the IC50 (at IDH1 R132H; at IDH1 R132C; in assay [1]) were 100 to 500 nM, more than 1000 nM and more than 1000 nM, respectively.
Turning to `C[C@H](Nc1nccc2c1CN([C@H](C)CF)C2=O)c1ccc(-c2ccnc(C(C)(C)C)c2)c(F)c1` [Compound 40, 4-(((S)-1-(4-(2-(tert-butyl)pyridin-4-yl)-3-fluorophenyl)ethyl)amino)-2-((R)-1-fluoropropan-2-yl)-2,3-dihydro-1H-pyrrolo[3,4-c]pyridin-1-one], the IC50 was less than 100 nM at IDH1 R132H, 100 to 500 nM on IDH1 R132C and 100 to 500 nM in assay [1].
As for `CCN1Cc2c(N[C@@H](C)c3ccc(-c4ccc(F)c(C)c4)c(F)c3)ncc(F)c2C1=O` [Compound 41, (S)-4-((1-(2,4′-difluoro-3′-methyl-[1,1′-biphenyl]-4-yl)ethyl)amino)-2-ethyl-7-fluoro-2,3-dihydro-1H-pyrrolo[3,4-c]pyridin-1-one], the IC50 at IDH1 R132H was 100 to 500 nM; on IDH1 R132C it was 500 to 1000 nM; in assay [1], more than 1000 nM.
In the case of `CCN1Cc2c(ccnc2N[C@@H](C)c2ccc(-c3ccnc(C(C)(C)C)c3)c(F)c2F)C1=O` [Compound 42, (S)-4-((1-(4-(2-(tert-butyl)pyridin-4-yl)-2,3-difluorophenyl)ethyl)amino)-2-ethyl-2,3-dihydro-1H-pyrrolo[3,4-c]pyridin-1-one], the IC50 is less than 100 nM on IDH1 R132H, 100 to 500 nM on IDH1 R132C and 100 to 500 nM in assay [1].
Consider `CCN1Cc2c(ccnc2N[C@@H](C)c2cc(F)c(-c3ccnc(C(C)(C)C)c3)c(F)c2)C1=O` [Compound 43, (S)-4-((1-(4-(2-(tert-butyl)pyridin-4-yl)-3,5-difluorophenyl)ethyl)amino)-2-ethyl-2,3-dihydro-1H-pyrrolo[3,4-c]pyridin-1-one], for which the IC50 at IDH1 R132H was less than 100 nM; at IDH1 R132C, less than 100 nM; in assay [1] it was 100 to 500 nM.
Consider `CCN1Cc2c(ccnc2N[C@@H](C)c2cnc(-c3cc(C(C)(C)C)ccn3)c(F)c2)C1=O` [Compound 44, (S)-4-((1-(4′-(tert-butyl)-3-fluoro-[2,2′-bipyridin]-5-yl)ethyl)amino)-2-ethyl-2,3-dihydro-1H-pyrrolo[3,4-c]pyridin-1-one], for which the values for the IC50 (on IDH1 R132H; at IDH1 R132C; in assay [1]) were more than 1000 nM, more than 1000 nM and 500 to 1000 nM, respectively.
On to `CCN1Cc2c(ccnc2N[C@@H](C)c2cc(C)c(-c3ccnc(C(F)(F)F)c3)cn2)C1=O` [Compound 45, (S)-2-ethyl-4-((1-(4-methyl-2′-(trifluoromethyl)-[3,4′-bipyridin]-6-yl)ethyl)amino)-2,3-dihydro-1H-pyrrolo[3,4-c]pyridin-1-one], for which the IC50 (at IDH1 R132H; at IDH1 R132C; in assay [1]) was more than 1000 nM throughout.
In the case of `CCN1Cc2c(ccnc2N[C@@H](C)c2ccc(-c3ccnc(C(C)(C)C)c3)cn2)C1=O` [Compound 46, (S)-4-((1-(2′-(tert-butyl)-[3,4′-bipyridin]-6-yl)ethyl)amino)-2-ethyl-2,3-dihydro-1H-pyrrolo[3,4-c]pyridin-1-one], the IC50 (on IDH1 R132H; on IDH1 R132C; in assay [1]) was more than 1000 nM in each case.
As for `CCN1Cc2c(ccnc2N[C@@H](C)c2ncc(-c3ccccc3)cn2)C1=O` [Compound 47, (S)-2-ethyl-4-((1-(5-phenylpyrimidin-2-yl)ethyl)amino)-2,3-dihydro-1H-pyrrolo[3,4-c]pyridin-1-one], the concentration for half-maximal inhibition (IC50) (at IDH1 R132H; on IDH1 R132C; in assay [1]) was more than 1000 nM throughout.
For the compound `CCN1Cc2c(ccnc2N[C@@H](C)c2ncc(-c3ccc(F)c(C)c3)cn2)C1=O` [Compound 48, (S)-2-ethyl-4-((1-(5-(4-fluoro-3-methylphenyl)pyrimidin-2-yl)ethyl)amino)-2,3-dihydro-1H-pyrrolo[3,4-c]pyridin-1-one], the IC50 (on IDH1 R132H; at IDH1 R132C; in assay [1]) was more than 1000 nM throughout.
For the compound `CCN1Cc2c(ccnc2N[C@@H](C)c2ncc(-c3cccc(C)c3F)cn2)C1=O` [Compound 49, (S)-2-ethyl-4-((1-(5-(2-fluoro-3-methylphenyl)pyrimidin-2-yl)ethyl)amino)-2,3-dihydro-1H-pyrrolo[3,4-c]pyridin-1-one], the IC50 (on IDH1 R132H; at IDH1 R132C; in assay [1]) was more than 1000 nM in each case.
`CCN1Cc2c(ccnc2N[C@@H](C)c2ncc(-c3ccc(OC)cc3)cn2)C1=O` [Compound 50, (S)-2-ethyl-4-((1-(5-(4-methoxyphenyl)pyrimidin-2-yl)ethyl)amino)-2,3-dihydro-1H-pyrrolo[3,4-c]pyridin-1-one]: the half-inhibitory concentration (IC50) (at IDH1 R132H; on IDH1 R132C; in assay [1]) was more than 1000 nM in each case.
As for `CCN1Cc2c(ccnc2N[C@@H](C)c2ccc(Cc3ccc(F)c(C)c3)c(F)c2)C1=O` [Compound 51, (S)-2-ethyl-4-((1-(3-fluoro-4-(4-fluoro-3-methylbenzyl)phenyl)ethyl)amino)-2,3-dihydro-1H-pyrrolo[3,4-c]pyridin-1-one], the values for the IC50 (on IDH1 R132H; on IDH1 R132C; in assay [1]) were 100 to 500 nM, 100 to 500 nM and more than 1000 nM, respectively.
Take `CCN1Cc2c(ccnc2N[C@@H](C)c2ccc(Cc3ccccc3)c(F)c2)C1=O` [Compound 52, (S)-4-((1-(4-benzyl-3-fluorophenyl)ethyl)amino)-2-ethyl-2,3-dihydro-1H-pyrrolo[3,4-c]pyridin-1-one]: the IC50 at IDH1 R132H is 100 to 500 nM; at IDH1 R132C, 100 to 500 nM; in assay [1] it was more than 1000 nM.
In the case of `CCN1Cc2c(ccnc2N[C@@H](C)c2ncc(Cc3ccc(F)c(C)c3)cn2)C1=O` [Compound 54, (S)-2-ethyl-4-((1-(5-(4-fluoro-3-methylbenzyl)pyrimidin-2-yl)ethyl)amino)-2,3-dihydro-1H-pyrrolo[3,4-c]pyridin-1-one], the IC50 (on IDH1 R132H; on IDH1 R132C; in assay [1]) was more than 1000 nM in each case.
